This is an account of results in ChEMBL document CHEMBL1201862, “PubChem BioAssay data set” (2004).

The structures appear in SMILES notation.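 48-hour exposure; five concentrations; linearly interpolated endpoints. GI50: concentration for 50% inhibition of growth.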 Activity calls are given as the source filed them. Rule as the data show it: active = GI50 up to about 1.1 µM and inactive = higher.

Holding throughout (experiment): NCI anticancer screen, dose series, 48 h
The subject of assay [1] is 786-0.
The test system of assay [2] is A498.
The test system of assay [3] is CCRF-CEM.
For assay [4], the system named is EKVX.
Assay [5] concerns HCT-116.
Assay [6] has as its system HCT-15.
For assay [7], the system named is KM12.
In assay [8] the test system is LOX IMVI.
Assay [9] has as its system Malme-3M.
Assay [10] deals with NCI-H23.
The test system of assay [11] is NCI-H460.
Assay [12] has as its system OVCAR-4.
The test system of assay [13] is RPMI-8226.
Assay [14] deals with SF-268.
Assay [15] deals with SF-295.
Assay [16] has as its system SK-MEL-28.
In assay [17] the test system is SK-MEL-5.
For assay [18], the system named is SR.
In assay [19] the test system is UO-31.

As to `O=C(OCC(OC(=O)c1ccccc1)C1CC(C2(O)CCCCC2)C(=O)O1)c1ccccc1` (stereo not drawn), the GI50 in assay [1] is > 25 µM (inactive); in assay [2] it was > 25 µM (inactive); in assay [3], 13.4 µM (inactive); in assay [4] it was > 25 µM (inactive); in [5] it was > 25 µM (inactive); in assay [6], > 25 µM. In addition, the GI50 in assay [7] is 11 µM (inactive); in assay [8], > 25 µM (inactive); in [9], > 25 µM (inactive); in assay [10], 0.05 µM (active); in assay [11], 9.18 µM (inactive); in [12], > 25 µM (inactive). In addition, the GI50 was > 25 µM (inactive) in [13]; > 25 µM (inactive) in assay [14]; > 25 µM (inactive) in [15]; > 25 µM (inactive) in assay [16]; > 25 µM (inactive) in assay [17]; 7.59 µM (inactive) in assay [18]. In addition, the GI50 in [19] is 0.0181 µM (active).
Take `COc1ccccc1C[C@@H]1OC2(C=CC(=O)CC2SC(=O)c2ccccc2)O[C@H]1Cc1ccccc1OC` (stereo partly drawn): the GI50 in assay [1] is 0.275 µM (active); in assay [2], 2.46 µM (inactive); in [3] it was 0.294 µM (active); in [5], 0.241 µM (active); in assay [6], 1.05 µM; in assay [7], 2.48 µM (inactive). In addition, the GI50 in [8] was 0.582 µM (active); in [9], 1.77 µM (inactive); in assay [10], 2.03 µM (inactive); in [11], 2.44 µM (inactive); in [12], 1.33 µM (inactive); in [13], 0.3 µM (active). Besides, the GI50 in assay [14] was 1.02 µM (active); in assay [15], 1.63 µM (inactive); in assay [16], 1.75 µM (inactive); in assay [17], 1.62 µM (inactive); in assay [18] it was 0.308 µM (active); in [19], 1.28 µM (inactive).
For `CCOc1cccc(/C=N\c2ccccc2SSc2ccccc2/N=C\c2cccc(OCC)c2O)c1O`, the GI50 in assay [1] is 7.6 µM (inactive); in assay [2], 24.2 µM (inactive); in [3] it was 3.32 µM (inactive); in [4], 3.86 µM (inactive); in [5] it was 1.73 µM (inactive); in assay [6], 3.44 µM. The GI50 in [7] was 6.82 µM (inactive); in assay [8] it was 4.47 µM (inactive); in assay [9], 10.2 µM (inactive); in assay [10] it was 5.08 µM (inactive); in assay [11], 5.48 µM (inactive); in assay [12] it was 4 µM (inactive). Also, the GI50 was 3.73 µM (inactive) in assay [13]; 4.22 µM (inactive) in assay [14]; 12.6 µM (inactive) in [15]; 12.4 µM (inactive) in [16]; 2.21 µM (inactive) in [17]; 4.25 µM (inactive) in assay [18]. Also, the GI50 in [19] was 13.7 µM (inactive).
In the case of `OC1(c2ccc(Cl)cc2)c2ccc(CN3CCCC3)cc2C2=NCCN21` (stereo not drawn), the GI50 in assay [1] was 15.2 µM (inactive); in [2], 13.1 µM (inactive); in assay [3] it was 12.2 µM (inactive); in assay [4], 15.2 µM (inactive); in [5] it was 14.1 µM (inactive); in assay [6] it was 17.3 µM. For the same compound, the GI50 is 12.8 µM (inactive) in assay [7]; 13.9 µM (inactive) in assay [8]; 11 µM (inactive) in [9]; 16.9 µM (inactive) in assay [10]; 14.6 µM (inactive) in assay [11]; 12.3 µM (inactive) in assay [12]. Besides, the GI50 is 10.2 µM (inactive) in assay [13]; 14.8 µM (inactive) in assay [14]; 14.6 µM (inactive) in assay [15]; 10.7 µM (inactive) in [16]; 10.5 µM (inactive) in assay [17]; 10.4 µM (inactive) in assay [18]. Further, the GI50 in assay [19] was 14.1 µM (inactive).
In the case of `COc1cc(-c2oc3ccccc3c(=O)c2O)cc(OC)c1OC`, the GI50 is 9.75 µM (inactive) in assay [1]; 22 µM (inactive) in [2]; 3.32 µM (inactive) in assay [3]; 25.3 µM (inactive) in [4]; 10.3 µM (inactive) in [5]; 4.62 µM in assay [6]. Also, the GI50 is > 100 µM (inactive) in assay [7]; 6.24 µM (inactive) in [8]; > 94.6 µM (inactive) in [9]; 61 µM (inactive) in assay [10]; 4.19 µM (inactive) in [11]; 7 µM (inactive) in [12]. The GI50 in assay [13] was 3.43 µM (inactive); in [14], 11.7 µM (inactive); in assay [15] it was 35.7 µM (inactive); in assay [16], > 100 µM (inactive); in [17], 6.58 µM (inactive); in [18] it was 3.03 µM (inactive). Besides, in assay [19], the GI50 is 4.63 µM (inactive).
`C=C(CO[Si](C)(C)C(C)(C)C)C(C)=O`: the GI50 in assay [1] is 17.2 µM (inactive); in assay [2], > 100 µM (inactive); in [3] it was 0.678 µM (active); in assay [4], > 100 µM (inactive); in [5], 13.3 µM (inactive); in [6] it was 13.9 µM. Further, the GI50 in assay [7] was 58.1 µM (inactive); in assay [8], 4.94 µM (inactive); in [9] it was 16.6 µM (inactive); in assay [10], 26.3 µM (inactive); in assay [11], > 77.4 µM (inactive); in assay [12] it was 21 µM (inactive). Moreover, the GI50 was 4.88 µM (inactive) in assay [13]; 31.4 µM (inactive) in [14]; > 100 µM (inactive) in assay [15]; 17.8 µM (inactive) in assay [16]; 14.6 µM (inactive) in [17]; 3.55 µM (inactive) in assay [18]. In assay [19], the GI50 was > 46.9 µM (inactive).
Turning to `CCCCCCCCC#CCCCCCCC(F)C(=O)O` (stereo not drawn), the GI50 was > 100 µM (inactive) in assay [1]; > 100 µM (inactive) in assay [2]; > 100 µM (inactive) in assay [3]; 43.1 µM (inactive) in [4]; > 100 µM (inactive) in [5]; > 100 µM in assay [6]. For the same compound, the GI50 in assay [7] is > 100 µM (inactive); in assay [8] it was > 100 µM (inactive); in assay [9], > 100 µM (inactive); in [10], > 100 µM (inactive); in [11], > 100 µM (inactive); in assay [12], 83.6 µM (inactive). In addition, the GI50 in [13] was 29.8 µM (inactive); in [14], > 100 µM (inactive); in assay [15] it was > 100 µM (inactive); in assay [16], > 100 µM (inactive); in assay [17], > 100 µM (inactive); in [18] it was > 100 µM (inactive). The GI50 in assay [19] is > 100 µM (inactive).
For `Clc1ccc(CCN[C@H]2CCCC[C@H]2N2CCCC2)cc1Cl`, the GI50 in [1] is 24 µM (inactive); in assay [2] it was 15.8 µM (inactive); in assay [3], 30.7 µM (inactive); in [4], 57.8 µM (inactive); in assay [5], 19.5 µM (inactive); in [6], 9.59 µM. For the same compound, the GI50 in [7] was 17.2 µM (inactive); in assay [8], 16 µM (inactive); in [9], 15.9 µM (inactive); in assay [10], 23.8 µM (inactive); in [11], 14.9 µM (inactive); in assay [12], 21.5 µM (inactive). Moreover, the GI50 in assay [13] was 25.2 µM (inactive); in assay [14], 32.2 µM (inactive); in [15], 16 µM (inactive); in assay [16] it was 28.9 µM (inactive); in [17], 14.6 µM (inactive); in assay [18] it was 28.7 µM (inactive). Besides, the GI50 in assay [19] is 13.6 µM (inactive).
Take `CC(=O)OC12c3ccccc3C(c3ccccc31)C1C(=O)N(Nc3ccccc3)C(=O)C12` (stereo not drawn): the GI50 in [1] was > 100 µM (inactive); in assay [2], > 100 µM (inactive); in [3], > 100 µM (inactive); in assay [4] it was > 100 µM (inactive); in assay [5] it was > 100 µM (inactive); in assay [6], > 100 µM. The GI50 in assay [7], in assay [8], in assay [9], in assay [10], in assay [11] and in [12] was > 100 µM (inactive) throughout. Besides, the GI50 in assay [13], in assay [14], in assay [15], in assay [16], in assay [17] and in assay [18] was > 100 µM (inactive) in each case. Further, the GI50 in assay [19] was > 100 µM (inactive).
For the compound `COc1ccc2oc(=N)c(C(=O)Nc3ccccc3)cc2c1`, the GI50 in assay [1] is 3.09 µM (inactive); in assay [2], 17.1 µM (inactive); in [3], 7.23 µM (inactive); in assay [4] it was 26.8 µM (inactive); in assay [5], 25.7 µM (inactive); in assay [6], 31 µM. Also, the GI50 is 24.7 µM (inactive) in assay [7]; 31.6 µM (inactive) in assay [8]; 15.9 µM (inactive) in assay [9]; 15.2 µM (inactive) in assay [10]; 45.5 µM (inactive) in assay [11]; 45.6 µM (inactive) in assay [12]. The GI50 in [13] was 15.7 µM (inactive); in [14], 20.6 µM (inactive); in assay [15], 16 µM (inactive); in assay [16] it was 30 µM (inactive); in assay [17], 25.8 µM (inactive); in assay [18], 7.11 µM (inactive). The GI50 in [19] was 45 µM (inactive).
`Cc1cc(C)c2c(=N)c3ccccc3n(CCCCCCn3c4ccccc4c(=N)c4c(C)cc(C)nc43)c2n1`: the GI50 in [1] was 0.224 µM (active); in assay [2], 1.73 µM (inactive); in assay [3], 0.266 µM (active); in [4], 1.77 µM (inactive); in assay [5] it was 0.18 µM (active); in [6], 0.181 µM. Besides, the GI50 in [7] was 0.346 µM (active); in [8] it was 0.182 µM (active); in assay [9], 1.63 µM (inactive); in assay [10], 1.4 µM (inactive); in [11], 0.859 µM (active); in [12], 1.43 µM (inactive). The GI50 in assay [13] was 0.305 µM (active); in [14], 1.56 µM (inactive); in [15] it was 1.36 µM (inactive); in assay [16] it was 1.28 µM (inactive); in assay [17], 1.84 µM (inactive); in [18], 0.197 µM (active). The GI50 in [19] was 1.56 µM (inactive).
